Measurements from publication PMC3566143, “Pantothenamides Are Potent, On-Target Inhibitors of Plasmodium falciparum Growth When Serum Pantetheinase Is Inactivated” (PLoS ONE, 2013).
Read-outs that look alike come from different tables or passages of the source.

Tested on: erythrocytic stage P. falciparum parasites (strain 3D7)
Assay: SYBR Green I-based in vitro growth assay (96 h)
Type: cell-based, Plasmodium falciparum
Conditions: for IC50: Plasmodium falciparum, 96 h
Description: Erythrocytic stage P. falciparum parasites (strain 3D7) were maintained within human erythrocytes in continuous culture essentially as described previously, [25]. P. falciparum-infected erythrocytes were routinely cultured in RPMI 1640 medium supplemented with 25 mM HEPES, 20 mM D-glucose, 200 µM hypoxanthine, 24 mg/L gentamycin and Albumax II (0.6%, w/v), which, hereafter is referred to as Albumax-complete RPMI. For several days prior to carrying out the assays testing the effect of compounds on the growth of P. falciparum in medium supplemented with human serum (instead of Albumax II), the parasites were cultured in the same medium mentioned above, except that human serum (10%, v/v, pooled from different blood donors) was used rather than Albumax II. This medium is hereafter referred to as human serum-complete RPMI.
The in vitro antiplasmodial activity of test compounds was determined using the malaria SYBR Green I-based fluorescence assay described by Smilkstein et al., with minor modifications. Briefly, P. falciparum-infected erythrocytes were incubated in culture medium containing two-fold dilutions of the test compounds in 96-well microtiter plates. Assays were initiated with ring-stage P. falciparum-infected erythrocytes at a hematocrit and parasitemia of 1%. Wells containing infected erythrocytes in the presence of chloroquine (0.25–2 µM) served as zero growth controls and wells containing infected erythrocytes in the absence of chloroquine or test compounds served as 100% parasite growth controls. Plates were incubated at 37°C under an atmosphere of 96% nitrogen, 3% carbon dioxide and 1% oxygen for 96 h, before 100 µL from each well was mixed with 100 µL of SYBR Safe DNA gel stain (0.2 µL/mL) in 20 mM Tris, pH 7.5, 5 mM ethylenediaminetetraacetic acid (EDTA), 0.008% (w/v) saponin, 0.08% (v/v) Triton X-100, in a second 96-well microtitre plate. Fluorescence was measured using a FLUOstar OPTIMA multidetection microplate reader from BMG LABTECH with excitation and emission wavelengths of 490 and 520 nm, respectively. The 50% inhibitory concentration (IC50) of each test compound under each test condition was calculated by fitting the data to a sigmoidal curve (typically y = a/(1+ (x/x0)^b) using nonlinear least squares regression (SigmaPlot, Systat Software) and averaging the IC50 estimates from independent experiments.
The antiplasmodial activity of test compounds was assessed in media that had been subjected to different pre-incubations. “Fresh” medium refers to medium that was stored for a maximum of 48 h at 4°C, and incubated at 37°C for a maximum of 1 h, prior to use. “Aged” medium refers to medium that was stored for a minimum of one week at 4°C and incubated intermittently at 37°C, or medium incubated continuously at 37°C for 40 h soon after preparation. As indicated at the relevant positions within the “Results” section, for some experiments the fresh medium used was, more specifically, medium used immediately following preparation, and the aged medium used was, more specifically, medium that was incubated at 37°C for 40 h immediately prior to use.

SMILES: CC(C)CNC(=O)CCNC(=O)[C@H](O)C(C)(C)CO [Compound 12]
- IC50 (3D7, 96 h, fresh Albumax-complete RPMI, 1 µM pantothenate, read-out: IC50 against P. falciparum, fresh medium, 1 μM pantothenate): 133 ± 12 µM
- IC50 (3D7, aged Albumax-complete RPMI (37°C for 40 h), 1 µM pantothenate, read-out: IC50 against P. falciparum, aged medium, 1 μM pantothenate): 1.1 ± 0.1 µM
- IC50 (3D7, human serum (10%, v/v) medium incubated at 37°C for 40 h, read-out: IC50 against P. falciparum in aged human serum-complete RPMI): 22 ± 10 µM
- increase in potency after second ageing of Albumax II-supplemented aged medium (aged + Albumax II + 40 h at 37°C versus aged + fresh Albumax II): > 65 fold
- effect of recombinant human pantetheinase on antiplasmodial effect in aged medium (aged Albumax-complete RPMI + 100 ng/mL recombinant human pantetheinase added at start of assay): alleviated the antiplasmodial effect
- fold-increase in IC50 following supplementation with 100 µM pantothenate, aged medium (aged Albumax-complete RPMI, IC50 at 100 µM pantothenate / IC50 at 1 µM pantothenate): 21±1 times
- effect on parasite growth in aged Albumax-complete RPMI with additional Albumax II (aged medium + additional Albumax II (0.6%, w/v) immediately prior to assay, 200 µM): little-to-no effect on parasite growth
- effect on parasite growth at 200 µM in aged Albumax-complete RPMI (aged medium, 200 µM): inhibits parasite growth completely
- fold-increase in IC50 following supplementation with 100 µM pantothenate, fresh medium (fresh Albumax-complete RPMI, IC50 at 100 µM pantothenate / IC50 at 1 µM pantothenate): 1.3±0.2 times
- effect on parasite growth in fresh human serum-complete RPMI (human serum (10%, v/v), fresh medium, up to 200 µM (highest concentration tested)): little-to-no effect on parasite growth
